Data taken from article PMC3872227 (Chemistry & biology, 2013).

Target: α1(A322D)β2γ2 GABAA receptor (α1 subunit) (Homo sapiens, UniProt P14867+P47870, P14867:A322D)
Experiment: whole-cell patch-clamp peak current at […] GABA, after SAHA treatment
Format: cell-based

α1(A322D)β2γ2 GABAA receptor (α1 subunit), sequence (P14867 28-456 A322D): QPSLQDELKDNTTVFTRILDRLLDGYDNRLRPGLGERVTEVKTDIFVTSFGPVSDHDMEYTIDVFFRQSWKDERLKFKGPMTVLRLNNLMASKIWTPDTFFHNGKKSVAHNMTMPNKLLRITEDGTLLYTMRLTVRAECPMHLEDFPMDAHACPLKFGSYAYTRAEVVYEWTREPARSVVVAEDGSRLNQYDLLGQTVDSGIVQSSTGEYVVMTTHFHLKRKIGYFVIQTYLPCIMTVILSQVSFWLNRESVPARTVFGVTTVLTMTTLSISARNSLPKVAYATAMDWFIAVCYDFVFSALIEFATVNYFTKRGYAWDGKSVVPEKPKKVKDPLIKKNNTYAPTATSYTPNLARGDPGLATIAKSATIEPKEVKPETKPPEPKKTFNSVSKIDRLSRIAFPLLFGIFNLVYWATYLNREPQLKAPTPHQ
α1(A322D)β2γ2 GABAA receptor (α1 subunit), sequence (P47870 26-512): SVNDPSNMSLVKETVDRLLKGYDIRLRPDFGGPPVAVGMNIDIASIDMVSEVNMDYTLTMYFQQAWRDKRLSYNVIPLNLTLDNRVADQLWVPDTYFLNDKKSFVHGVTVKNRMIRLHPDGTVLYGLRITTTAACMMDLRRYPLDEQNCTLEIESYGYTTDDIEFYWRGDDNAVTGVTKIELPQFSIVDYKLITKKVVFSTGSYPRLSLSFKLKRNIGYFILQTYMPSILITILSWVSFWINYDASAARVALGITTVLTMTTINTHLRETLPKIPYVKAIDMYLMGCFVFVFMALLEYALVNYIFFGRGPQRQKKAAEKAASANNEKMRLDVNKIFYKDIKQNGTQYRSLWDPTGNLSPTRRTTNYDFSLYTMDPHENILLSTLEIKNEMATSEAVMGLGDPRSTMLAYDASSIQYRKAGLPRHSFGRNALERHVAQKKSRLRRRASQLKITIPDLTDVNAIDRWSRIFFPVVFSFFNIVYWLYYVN
α1(A322D)β2γ2 GABAA receptor (α1 subunit), sequence (P18507 40-475 partner): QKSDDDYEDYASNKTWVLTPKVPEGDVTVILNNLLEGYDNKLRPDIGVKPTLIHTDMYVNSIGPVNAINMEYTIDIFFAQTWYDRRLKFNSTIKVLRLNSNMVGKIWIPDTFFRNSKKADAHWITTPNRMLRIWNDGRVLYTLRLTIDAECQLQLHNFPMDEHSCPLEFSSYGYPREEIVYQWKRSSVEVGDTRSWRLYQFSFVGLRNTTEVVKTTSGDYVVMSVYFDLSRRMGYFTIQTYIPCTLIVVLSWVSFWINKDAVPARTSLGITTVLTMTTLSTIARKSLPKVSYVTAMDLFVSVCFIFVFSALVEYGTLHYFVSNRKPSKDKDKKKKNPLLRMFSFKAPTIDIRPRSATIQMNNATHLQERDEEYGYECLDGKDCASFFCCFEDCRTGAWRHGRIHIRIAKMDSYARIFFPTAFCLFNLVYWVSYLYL

In the case of `NCCCC(=O)O` [GABA], the “whole-cell patch-clamp peak current at 3 mM GABA, after SAHA treatment” value is reported as 14 ± 3 pA.
